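These data come from cells grown in 96-well plates and exposed to compound for 48 hours at five concentrations. The concentration for full growth arrest is given as TGI.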
Experiments:
Assay in all cases: NCI tumour cell line growth inhibition, 48 h
MCF7 breast = test system: MCF7 breast
TK-10 renal = test system: TK-10 renal
SR leukemia = test system: SR leukemia
SF-295 CNS = test system: SF-295 CNS
786-0 renal = test system: 786-0 renal
MDA-MB-435 = test system: MDA-MB-435
HCT-116 colon = test system: HCT-116 colon
NCI-H226 lung = test system: NCI-H226 lung
BT-549 breast = test system: BT-549 breast
HCC-2998 colon = test system: HCC-2998 colon
K-562 leukemia = test system: K-562 leukemia
NCI-H460 lung = test system: NCI-H460 lung
SK-MEL-2 melanoma = test system: SK-MEL-2 melanoma
SW-620 colon = test system: SW-620 colon
HOP-92 NSCLC = test system: HOP-92 NSCLC
SF-268 CNS = test system: SF-268 CNS
M14 melanoma = test system: M14 melanoma
CCRF-CEM leukemia = test system: CCRF-CEM leukemia
MDA-N = test system: MDA-N
NCI-H23 lung = test system: NCI-H23 lung
RPMI-8226 leukemia = test system: RPMI-8226 leukemia
UACC-257 melanoma = test system: UACC-257 melanoma
SF-539 CNS = test system: SF-539 CNS
SN12C renal = test system: SN12C renal
SK-OV-3 ovarian = test system: SK-OV-3 ovarian
SK-MEL-28 melanoma = test system: SK-MEL-28 melanoma
MOLT-4 leukemia = test system: MOLT-4 leukemia
T-47D breast = test system: T-47D breast
RXF 393 renal = test system: RXF 393 renal
SK-MEL-5 melanoma = test system: SK-MEL-5 melanoma
MALME-3M melanoma = test system: MALME-3M melanoma
SNB-19 CNS = test system: SNB-19 CNS
NCI/ADR-RES ovarian = test system: NCI/ADR-RES ovarian
PC-3 prostate = test system: PC-3 prostate
HCT-15 colon = test system: HCT-15 colon
HL-60(TB) leukemia = test system: HL-60(TB) leukemia
OVCAR-4 ovarian = test system: OVCAR-4 ovarian
DU-145 prostate = test system: DU-145 prostate
SNB-75 CNS = test system: SNB-75 CNS
KM12 colon = test system: KM12 colon
A498 renal = test system: A498 renal
A549 NSCLC = test system: A549 NSCLC
OVCAR-5 ovarian = test system: OVCAR-5 ovarian
UACC-62 melanoma = test system: UACC-62 melanoma
HOP-62 NSCLC = test system: HOP-62 NSCLC
U251 CNS = test system: U251 CNS
COLO 205 colon = test system: COLO 205 colon
HS 578T breast = test system: HS 578T breast
LOX IMVI melanoma = test system: LOX IMVI melanoma
IGROV1 ovarian = test system: IGROV1 ovarian
OVCAR-8 ovarian = test system: OVCAR-8 ovarian
CAKI-1 renal = test system: CAKI-1 renal
OVCAR-3 ovarian = test system: OVCAR-3 ovarian
UO-31 renal = test system: UO-31 renal
MDA-MB-231 breast = test system: MDA-MB-231 breast
EKVX NSCLC = test system: EKVX NSCLC
NCI-H522 lung = test system: NCI-H522 lung
ACHN renal = test system: ACHN renal
HT29 colon = test system: HT29 colon

CS(=O)(=O)OC1CCN(C2(c3cccc(O)c3)CCCCC2)CC1
TGI (MCF7 breast): > 100 µM | TGI (TK-10 renal): > 100 µM | TGI (SR leukemia): 49.4 µM | TGI (SF-295 CNS): > 100 µM | TGI (786-0 renal): 92.4 µM | TGI (MDA-MB-435): > 100 µM | TGI (HCT-116 colon): > 100 µM | TGI (NCI-H226 lung): > 100 µM | TGI (BT-549 breast): > 100 µM | TGI (HCC-2998 colon): 39.7 µM | TGI (K-562 leukemia): > 100 µM | TGI (NCI-H460 lung): > 100 µM | TGI (SK-MEL-2 melanoma): > 100 µM | TGI (SW-620 colon): > 100 µM | TGI (HOP-92 NSCLC): > 100 µM | TGI (SF-268 CNS): > 100 µM | TGI (M14 melanoma): > 100 µM | TGI (CCRF-CEM leukemia): 60.5 µM | TGI (MDA-N): > 100 µM | TGI (NCI-H23 lung): > 100 µM | TGI (RPMI-8226 leukemia): 49 µM | TGI (UACC-257 melanoma): > 100 µM | TGI (SF-539 CNS): 89.9 µM | TGI (SN12C renal): > 100 µM | TGI (SK-OV-3 ovarian): > 100 µM | TGI (SK-MEL-28 melanoma): > 100 µM | TGI (MOLT-4 leukemia): 94.1 µM | TGI (T-47D breast): > 100 µM | TGI (RXF 393 renal): > 100 µM | TGI (SK-MEL-5 melanoma): > 100 µM | TGI (MALME-3M melanoma): > 100 µM | TGI (SNB-19 CNS): > 100 µM | TGI (NCI/ADR-RES ovarian): > 100 µM | TGI (PC-3 prostate): > 100 µM | TGI (HCT-15 colon): > 100 µM | TGI (HL-60(TB) leukemia): 38.2 µM | TGI (OVCAR-4 ovarian): > 100 µM | TGI (DU-145 prostate): > 100 µM | TGI (SNB-75 CNS): > 100 µM | TGI (KM12 colon): > 100 µM | TGI (A498 renal): > 100 µM | TGI (A549 NSCLC): > 100 µM | TGI (OVCAR-5 ovarian): > 100 µM | TGI (UACC-62 melanoma): > 100 µM | TGI (HOP-62 NSCLC): > 100 µM | TGI (U251 CNS): > 100 µM | TGI (COLO 205 colon): > 100 µM | TGI (HS 578T breast): > 100 µM | TGI (LOX IMVI melanoma): 51.8 µM | TGI (IGROV1 ovarian): > 100 µM | TGI (OVCAR-8 ovarian): > 100 µM | TGI (CAKI-1 renal): > 100 µM | TGI (OVCAR-3 ovarian): > 100 µM | TGI (UO-31 renal): > 100 µM | TGI (MDA-MB-231 breast): > 100 µM | TGI (EKVX NSCLC): > 100 µM | TGI (NCI-H522 lung): > 100 µM | TGI (ACHN renal): > 100 µM | TGI (HT29 colon): > 100 µM

CC1=NN(c2cccc(Cl)c2)C2(C1)SCC(=O)N2c1nc2ccccc2s1 (stereo not drawn)
TGI (MCF7 breast): > 100 µM | TGI (TK-10 renal): 74.1 µM | TGI (SR leukemia): 37.8 µM | TGI (SF-295 CNS): 74.9 µM | TGI (786-0 renal): 56.1 µM | TGI (MDA-MB-435): 79.7 µM | TGI (HCT-116 colon): 36.7 µM | TGI (NCI-H226 lung): 37.1 µM | TGI (BT-549 breast): > 100 µM | TGI (HCC-2998 colon): 38.5 µM | TGI (K-562 leukemia): 48.9 µM | TGI (NCI-H460 lung): 58.8 µM | TGI (SK-MEL-2 melanoma): 49.2 µM | TGI (SW-620 colon): > 100 µM | TGI (HOP-92 NSCLC): > 100 µM | TGI (SF-268 CNS): > 100 µM | TGI (M14 melanoma): 86.5 µM | TGI (CCRF-CEM leukemia): 62.6 µM | TGI (MDA-N): > 100 µM | TGI (NCI-H23 lung): 84.5 µM | TGI (RPMI-8226 leukemia): 38.6 µM | TGI (UACC-257 melanoma): 57.7 µM | TGI (SF-539 CNS): 45.8 µM | TGI (SN12C renal): 69.1 µM | TGI (SK-OV-3 ovarian): 85.3 µM | TGI (SK-MEL-28 melanoma): > 100 µM | TGI (MOLT-4 leukemia): 38.9 µM | TGI (T-47D breast): 84.4 µM | TGI (RXF 393 renal): 44.9 µM | TGI (SK-MEL-5 melanoma): 39.4 µM | TGI (MALME-3M melanoma): > 100 µM | TGI (SNB-19 CNS): > 100 µM | TGI (NCI/ADR-RES ovarian): > 100 µM | TGI (PC-3 prostate): 65.1 µM | TGI (HCT-15 colon): > 100 µM | TGI (HL-60(TB) leukemia): 43.1 µM | TGI (OVCAR-4 ovarian): > 100 µM | TGI (DU-145 prostate): > 100 µM | TGI (SNB-75 CNS): 43.5 µM | TGI (KM12 colon): 69.2 µM | TGI (A498 renal): 89.8 µM | TGI (A549 NSCLC): > 100 µM | TGI (OVCAR-5 ovarian): > 100 µM | TGI (UACC-62 melanoma): > 100 µM | TGI (HOP-62 NSCLC): 58.3 µM | TGI (U251 CNS): 75.2 µM | TGI (COLO 205 colon): 32.5 µM | TGI (HS 578T breast): > 100 µM | TGI (LOX IMVI melanoma): 41.6 µM | TGI (IGROV1 ovarian): > 100 µM | TGI (OVCAR-8 ovarian): > 100 µM | TGI (CAKI-1 renal): > 100 µM | TGI (OVCAR-3 ovarian): 58.9 µM | TGI (UO-31 renal): 57.4 µM | TGI (MDA-MB-231 breast): 40.3 µM | TGI (EKVX NSCLC): > 100 µM | TGI (NCI-H522 lung): 75.5 µM | TGI (ACHN renal): 79.9 µM | TGI (HT29 colon): 63.8 µM

Source: PubChem BioAssay (NCI)
